We go through five molecules from patent US20180311356A1, “METHOD TO INHIBIT ENDOTHELIAL-TO-MESENCHYMAL TRANSITION” (THE CHILDREN'S MEDICAL CENTER CORPORATION, priority 2015, published 2018).

Data set [1] deals with carotid artery endothelial cells (CAEC). The data set is described as follows: EndMT assay with qPCR in TGFβ1-treated CAEC. In kind it is cell-based, Ovine. To be noted: for EndMT and fibrosis marker mRNA in CAEC: presence or absence of inhibitor. The procedure: (§1) Ovine mitral VEC and CAEC were plated at 10,000 cells/cm^2 on gelatin-coated dishes. After 24 hours, EBM-B was replaced with fresh EBM-B containing 1 ng/ml human TGFβ1 (R&D Systems, MN, USA). Cells were harvested with Liberase ([…]) 96 hours later, and used for flow cytometry. Cells were analyzed simultaneously for VE-cadherin, α-SMA and CD45 by flow cytometry as described above.
(§2) Total cellular RNA was extracted from mitral VEC clones (C5, D1, E5, E10 and E10-2) and CAEC (n=2) with an RNeasy Micro extraction kit (Qiagen, Valencia, Calif., #74004). Reverse transcriptase reactions were performed using an iScript cDNA Synthesis Kit (Bio-Rad, CA, USA #170-8890). qPCR was performed using Kapa Sybr Fast ABI Prism 2×qPCR Master Mix (KAPA BioSystems, MA, USA # KK4604). Amplification was carried out in an ABI 7500 (Applied Biosystems, Foster City, Calif.). A standard curve for each gene was generated to determine amplification efficiency. RPS9 was used as housekeeping gene expression reference. Fold increases in gene expression were calculated according to 2 delta Ct method^28,29, with each amplification reaction performed in triplicate.
(In general: Real-time PCR tracks product formation cycle by cycle.)

In data set [2] the test system is mitral VEC. Kind of data set: EndMT assay with qPCR in TGFβ1-treated mitral VEC clones. To be noted: for NFATc1 mRNA / αSMA, Slug, MMP-2, collagen 1, collagen 3, TGFβ1, TGFβ2 and TGFβ3 mRNA levels: inhibitor 0.5 μM during the 4 day TGFβ1 treatment, mitral VEC clones. Type of data set: cell-based, Ovine. As to the method:
as §1, §2

For data set [3], the system named is mitral VEC. The data set is described as follows: Cellular migration assay (Transwell), mitral VEC clones. To be noted: for EndMT-increased migration towards serum and bFGF: TGFβ-treated mitral VEC clones (n=3), inhibitor 1.0 μM 30 min before and during 6 hour assay. In kind it is cell-based, Ovine. The procedure: (§3) The lower chambers contained 0.1% BSA/EBM-2 media alone or EBM with serum and basic FGF as a chemoattractants. Cells were allowed to migrate for 6 hours at 37° C. (FIG. 6) Cells that migrated through the pores were fixed with methanol and stained with Eosin-Y, Azure A and Methylene Blue for visualization and quantification using Three Step Stain Set (VWR, PA, USA #48218-567).

The test system of data set [4] is carotid artery endothelial cells (CAEC). The data set is described as follows: Cellular migration assay (Transwell), CAEC. To be noted: 6 hour assay; for Migration of CAEC, response to inhibitor: control and TGFβ1-treated CAEC, inhibitor 1.0 μM. Type of data set: cell-based, Ovine. As to the method: as §3
For a further data set, the system named is TGF-β. To be noted: cited from earlier work.
Data set [5] has as its system early stage diffuse cutaneous systemic sclerosis. To be noted: cited from earlier work.
Data set [6] concerns mitral VEC. The data set is described as follows: EndMT assay with flow cytometry, mitral VEC clones. Type of data set: cell-based, Ovine. The procedure:
(§4) Ovine MVs were minced and digested for 30 minutes at 37° C. with Liberase (Roche Diagnostics, IN, USA, #5401119001), a blend of purified collagenases I and II. Isolated cells were fixed using Flow Cytometry Fixation Buffer (R&D Systems, MN, USA, #FC004) and labeled in Flow Cytometry Permeabilization/Wash Buffer I (R&D Systems, MN, USA, #FC005) for 45 minutes (100,000 cells/100 μl Buffer I). Murine anti-human CD45-FITC or -APC (1:50; AbD Serotec, NC, USA, # MCA2220F and #559864), VE-cadherin-PE or -FITC (1:100; R&D Systems, MN, USA, # FAB9381P and AbD Serotec, NC, USA, # AHP628F), and α-smooth muscle actin (αSMA)-APC or -PE (1:100; R&D Systems, MN, USA, # IC1420P and # IC1420A) were used.
as §1
On the technique in general: A flow cytometer gives signals particle by particle.

Data set [7] relates to carotid artery endothelial cells (CAEC). Kind of data set: EndMT assay with flow cytometry, CAEC. Type of data set: cell-based, Ovine. To be noted: TGFβ-treated and non-treated CAECs. The procedure: as §4, §1
In another data set the target is T1, TGF-beta2 (Homo sapiens, UniProt P61812).
T1 sequence (P61812 303-414 limits assumed): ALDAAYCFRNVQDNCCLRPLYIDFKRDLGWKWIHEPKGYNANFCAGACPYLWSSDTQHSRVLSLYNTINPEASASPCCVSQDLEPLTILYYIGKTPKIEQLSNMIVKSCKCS
To be noted: cited from earlier work.

The target in another data set is T2, TGF-beta3 (Homo sapiens, UniProt P10600).
T2 sequence (P10600 301-412 limits assumed): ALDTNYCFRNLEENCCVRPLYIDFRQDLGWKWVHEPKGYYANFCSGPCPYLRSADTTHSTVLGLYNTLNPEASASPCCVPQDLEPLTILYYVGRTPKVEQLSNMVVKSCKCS
To be noted: cited from earlier work.

The subject of another data set is scar formation. To be noted: first clinical trials; intractable glaucoma patients, trabeculectomy; cited from earlier work.
In data set [8] the test system is scarring after glaucoma surgery. To be noted: rabbits; cited from earlier work.
[9] abbreviates: listed as CD45 phosphatase inhibitor.
Where [10] appears, read: qPCR, listed as CD45 phosphatase inhibitor.

Consider `CC(C)(C)C(=O)Nc1ccc2c(c1)C(=O)C(=O)c1ccccc1-2` [CD45 PTPase inhibitor, N-(9,10-dioxo-9,10-dihydro-phenanthren-2-yl)-2,2-dimethyl propionamide], for which the “EndMT and fibrosis marker mRNA in CAEC” value in [1] is on record as “no changes”; in data set [1] (setting [9]), “no effect”. In addition, the “NFATc1 mRNA” value is recorded as “restored” in the data set on mitral VEC [2] (qPCR) and “blocks the decrease” in the data set with mitral VEC [2] (setting [10]). The “αSMA, Slug, MMP-2, collagen 1, collagen 3, TGFβ1, TGFβ2 and TGFβ3 mRNA levels” value in the data set on mitral VEC [2] (qPCR) is “significantly reduced”; with mitral VEC [2] (setting [10]), “reduces”. Besides, the “induction of 7 EndMT/fibrosis markers (α-SMA, Slug, MMP2, NFATc1, TGFβ2, collagen 1 and collagen 3)” value in the data set with mitral VEC [2] (summary statement) is listed as “blocks”. Besides, the “EndMT-increased migration towards serum and bFGF” value with mitral VEC [3] is listed as “significantly inhibited”; with mitral VEC [3] (setting [9]), “specifically blocks”. The “Migration of CAEC, response to inhibitor” value in data set [4] is on record as “no response”; in data set [4] (setting [9]), “no effect”.

Regarding `Cc1ccc(=O)n(-c2ccccc2)c1` [Pirfenidone, 5-methyl-1-phenyl-2(1H)-pyridone], the “TGF-β promoter activity, TGF-β protein secretion, TGF-β-induced Smad2 phosphorylation and generation of reactive oxygen species” value in the data set on TGF-β is “reduces”.

CAT-192: a TGF-β1 neutralizing antibody: the adverse events entry in data set [5] (in vivo) was “more adverse events”. Also, in [5] (phase I/II trial NCT00043706), the “effect on early stage diffuse cutaneous systemic sclerosis” value is “did not show effect”.

Regarding “TGFβ1: human TGFβ1 (R&D Systems), used at 1 ng/ml to induce EndMT”, in data set [1], the “CD45, VE-cadherin or αSMA mRNA levels in CAEC” value was “No changes”. In the data set on mitral VEC [2] (TGFβ1-treated mitral VEC clones, qPCR), the “Collagen 1, collagen 3, TGFβ1, TGFβ2 and TGFβ3 mRNA transcripts” value is “increased”. Also, in the data set with mitral VEC [2] (TGFβ1-treated mitral VEC, qPCR), the “Slug, MMP2 and NFATc1 mRNA” value is reported as “modulated as expected”. Besides, in the data set on mitral VEC [2] (five mitral VEC clones, TGFβ1 4 days, qPCR), the “CD45 and αSMA mRNA” value is “significant increases”. Besides, the “migration towards serum and bFGF after TGFβ treatment” value in the data set on mitral VEC [3] (mitral VEC clones (n=3), TGFβ1 4 days, 6 hour assay) is reported as “significantly increased”. In addition, the “α-SMA, flow cytometry” value in the data set with mitral VEC [6] (TGFβ1-treated mitral VEC clones) is given as “significantly increased”. The “CD11b and CD14 expression, flow cytometry” value with mitral VEC [6] (TGFβ1-treated mitral VEC, data not shown) is given as “No expression was detected”. Besides, in the data set with mitral VEC [6] (four additional mitral VEC clones treated with TGFβ1 1 ng/ml 96 hours), the “cells positive for CD45” value was 19-88%. For the same molecule, the “CD45 and αSMA expression, flow cytometry” value with mitral VEC [6] (mitral VEC clone E10, 1 ng/ml TGFβ1, 96 hours) is on record as “strong induction”. Further, the “CD45, flow cytometry” value in the data set with mitral VEC [6] (seven mitral VEC clones, 4 day exposure to TGFβ1) is on record as “significantly increased”. Moreover, the “CD45 or αSMA expression in CAEC, flow cytometry” value in data set [7] is “did not express”. Also, the “migration of CAEC after TGFβ treatment” value in [4] (CAEC) is “no increase”.

B1: CAT-152: fully human TGF-beta2 neutralizing antibody (antibody, chains of the INN, looked up, V domains shown)
VH: EVQLVESGGGVVQPGRSLRLSCAASGFTFSSYGMHWVRQAPGKGLEWVAVIWYDGSNKYYADSVKGRFTISRDNSKNTLYLQMDSLRAEDTAVYYCGRTLESSLWGQGTLVTVSS
VL: SSELTQDPAVSVALGQTVRITCQGDSLRSYYASWYQQKPGQAPVLVIYGKNNRPSGIPDRFSGSSSGNTASLTITGAQAEDEADYYCNSRDSSSTHRGVFGGGTKLTVL
With B1, in the data set with TGF-beta2, the “affinity for TGF-beta2” value is reported as “high affinity”. The “affinity for TGF-beta3” value in the data set with TGF-beta3 is recorded as “lower affinity”. In addition, in the data set with scar formation, the scar formation entry is recorded as “possible effects”. In data set [8], the “scarring after glaucoma surgery” value is “capable of inhibiting”.
